# Measured values reported in patent publication US20230381205A1, “COMPOSITIONS AND METHODS FOR TREATING NEURONAL DISORDERS WITH CANNABINOIDS” (INMED PHARMACEUTICALS INC., priority 2020, published 2023).
# Columns and labels:
# [1] = tested on: differentiated SH-SY5Y human neuronal cells; test: MTT assay: cytotoxicity of the substance alone (primary screen, no added insult); format: cell-based; settings: for toxicity in primary screen / Cell Death (%) vs Vehicle Control: FIG. 1; for Cell Death (%) vs Vehicle Control: 15 μM, pre-screen
# Procedure: (§1) Cell Culture and Differentiation: The SH-SY5Y human neuronal cell line was derived from neuroblastoma established from a metastatic bone tumor (patient with neuroblastoma). The cells were maintained in DMEM:F12 culture medium supplemented with 10% FBS and 1% Antibiotic-Antimycotic penicillin/streptomycin (growth medium) at 37° C. in a humidified atmosphere of 5% CO2. To induce neuronal differentiation of SH-SY5Y cells, culture media was replaced by a growth medium containing Retinoic Acid (RA) for 4-5 days at 37° C. in a humidified atmosphere of 5% CO2.
# (§2) Compounds and Dosing Formulations: Selected cannabinoids: CBD, CBDA, CBC, CBG, CBGA, CBN, CBND and Δ^9-THC were procured from Cayman Chemicals and TRC. Ethanol (100%) was used as the solvent to prepare 1 and 10 mM stock solutions. Treatment concentrations for CBGA were prepared at 0.5 μM, 1.5 μM, 5 μM, 10 μM, 15 μM, 20 μM. Treatment concentrations for CBD, CBDA, CBC, CBN, CBND and Δ^9-THC were prepared at 0.5, 1.5, 5 and for CBG at 0.5 μM, 1.5 μM, 5 μM, 10 μM, 15 μM. Treatments were prepared directly in the control medium (DMEM:F12+5% FBS+1% Antibiotic-Antimycotic) by using appropriate stock solutions.
# (§3) Evaluation of Cytotoxicity and Neuroprotection: Evaluation of cannabinoids neuroprotection and cytotoxicity on differentiated SH-SY5Y human neuronal cells was carried out by MTT (3-(4,5-dimethylthiazol-2-yl)-2,5-diphenyltetrazolium bromide) assay. Initially, cannabinoid cytotoxicity and neuroprotection were evaluated in a primary screen assay without the presence of cytotoxicity inducing insult agents. […] The Retinoic Acid (RA) differentiated SH-SY5Y neuronal cells were seeded onto 96-well plates (10,000 cells/well) in DMEM:F12 complete medium. Cells were differentiated for 4-5 days in the presence of RA.
# (§4) MTT Assay: For the MTT assay, differentiated SH-SY5Y neuronal cells were treated with cannabinoids at various concentrations for 72 hrs in the presence of STSR at 75 nM, 100 nM, 150 nM and 200 nM or for 24 hrs in the presence of […] at 5 μM, respectively and processed to determine cytotoxicity. Briefly, 5 mg/mL of methylthiazolyldiphenyl-tetrazolium bromide (Sigma-Aldrich) stock solution was prepared in PBS. Following treatment of SH-SY5Y neuronal cells with cannabinoids for 72 hrs, the cells were incubated with 20 μL of MTT stock solution in 200 μL DMEM for 2 hrs at 37° C. Following subsequent washes with PBS, 200 μL of isopropanol was added to each well. The resulting change in color from dissolving formazan salt was immediately quantified using a spectrophotometer (BMG Labtech) at a wavelength of 570 nm. […] The results are illustrated in FIGS. 1-7.
# [2] = tested on: differentiated SH-SY5Y human neuronal cells; test: MTT assay: neuroprotection from Staurosporin (STSR) induced cytotoxicity; format: cell-based; settings: for neuroprotection against STSR-induced cytotoxicity: 0.5 μM, 1.5 μM and 5 μM with STSR 75 nM, 72 hrs; for neuroprotection against STSR-induced cytotoxicity / Cell Death (%) vs STSR at 75 nM, significance: FIG. 3; for Cell Death (%) vs STSR at 75 nM, significance: 5 μM with STSR 75 nM, compared to STSR-alone, One-Way ANOVA
# Procedure: as §1, §2, §3, §4
# [3] = tested on: differentiated SH-SY5Y human neuronal cells; test: MTT assay: neuroprotection from Aβ1-42 induced cytotoxicity; format: cell-based
# Procedure: as §1, §2, §3, §4
# [4] = tested on: CB1R; test: Changes in CB1 receptor expression and translocation; format: cell-based; settings: CBGA 5 μM, 10 μM, dose-dependent; FIG. 11
# Excerpt: FIG. 11 Changes in receptor expression.
# [5] = tested on: differentiated SH-SY5Y cells; test: Neurite length / neuritogenesis in differentiated SH-SY5Y cells; format: cell-based, human; settings: 24 hours post treatment, FIG. 14 (B)
# Procedure: FIG. 12 provides representative photomicrographs illustrating CBGA mediated changes in neurite elongation and branching in differentiated SH-SY5Y cells in a dose dependent manner. […] FIG. 12 also provides a histogram showing gradual changes in neurite length following treatment with CBGA.
# (§5) FIG. 14 Morphological characterization of CBGA, THC and CBN mediated changes in differentiated SH-SY5Y cells. SH-SY5Y cells were differentiated with RA (10 μM) for 5 days as indicated. (A) Representative confocal photomicrographs showing changes in the cellular distribution of Tuj1 in RA induced differentiated SH-SY5Y cells following treatment with CBGA, THC and CBN. (B) Histogram showing the effect of CBGA, CBN, THC on neurite length.
# [6] = tested on: differentiated SH-SY5Y cells; test: Immunocytochemistry of TuJ1 and neuronal morphology; format: cell-based, human; settings: 5 μM, FIG. 14
# Procedure: as §5
# [7] = tested on: differentiated SH SY5Y cells treated with Aβ1-42; test: Receptor antagonist study: reversal of CBGA mediated protection from Aβ toxicity; format: cell-based, human; settings: CB2 antagonist at 1.5 μM (lowest concentration tested), with CBGA + Aβ1-42, FIG. 8
# Procedure: FIG. 8 illustrates the effect of a CB2 antagonist has on the reversal of CBGA mediated protection of Aβ toxicity. The CB2 antagonist […] has a more prominent effect on the reversal of CBGA mediated protection. […] CB2 antagonist has significant effect on the reversal of CBGA mediated protection at lower concentration. p<0.0001 for Aβ compared to vehicle control. p<0.0001 for all groups compared to CBGA ([…])+Aβ.
# [8] = tested on: differentiated SH-SY5Y cells; test: Confocal immunofluorescence of MAP2 and neurite morphology; format: cell-based, human; settings: Aβ1-42 at 5 μM alone, FIG. 16
# Procedure: SH-SY5Y cells were differentiated with RA (10 μM) for 5 days as indicated.
# Accordingly, the effect of CBGA on the expression of MAP-2 was tested.
# [9] = tested on: BAX; test: Western blot of BAX (pro-apoptotic marker); format: cell-based, human; settings: Aβ1-42 (5 μM) alone, FIG. 9
# Procedure: (§6) For Western blot analysis, control and the treated cells were harvested and lysed in cold lysis buffer (150 mM NaCl, 50 mM Tris-HCl, 1% Triton X-100, 0.1% SDS, 0.5% Sodium deoxycholate, and 1% protease-phosphatase inhibitor mixture). The supernatants were collected and protein concentrations were determined using Bio-Rad protein assay (Bio-Rad Laboratories). Whole cell lysates (10 μg) were subjected to 10% SDS-polyacrylamide electrophoresis and transferred to nitrocellulose membrane. The membranes were blocked with 5% skim milk in TBS-T (Tris-buffered saline with 0.05% Tween-20) for 1 h at RT and blotted overnight in the presence of monoclonal anti-mouse MAP2 (1:1000, Sigma, cat. no. M1406), Tau (1:1000, Invitrogen, cat. no. AHB0042), TUJI (1:5000, BioLegend, cat. no. MMS-435P), BAX (1:1000, Cell signaling, cat. no. 2772) and rabbit polyclonal total and phosphorylated BCL (1:1000, Cell signaling, antibodies #2827 and 2870). The membranes were washed and incubated for 1 h in RT with either horseradish peroxidase (HRP)-conjugated goat anti-mouse (1:2000) or goat anti-rabbit antibodies (1:2000) (Jackson Lab). The membranes were washed and developed using chemiluminescence detection kit (Millipore, Billerica, MA, USA) on Alpha Innotech FluorChem 8800. β-Actin or Vinculin was used as a loading control. […]
# [10] = tested on: BCL2; test: Western blot of phosphorylated BCL2 (anti-apoptotic marker); format: cell-based, human; settings: Aβ1-42 insult alone, FIG. 10
# Procedure: as §6
compound,measurement,setting,value
"CCCCCc1cc(O)c2c(c1)OC(C)(CCC=C(C)C)C=C2 (stereo not drawn) [CBC, cannabichromene]",toxicity in primary screen,[1]; 5 μM to 15 μM,high levels of toxicity
same,Cell Death (%) vs Vehicle Control,[1],promote cell death
same,toxicity in primary screen,[1]; about 0.5 μM to 1.5 μM,high levels of toxicity
"C=C(C)[C@@H]1CCC(C)=C[C@H]1c1c(O)cc(CCCCC)cc1O [CBD, cannabidiol]",toxicity in primary screen,[1]; 5 μM to 15 μM,high levels of toxicity
same,Cell Death (%) vs Vehicle Control,[1],promote cell death
same,toxicity in primary screen,[1]; about 0.5 μM to 1.5 μM,high levels of toxicity
same,neuroprotection against STSR-induced cytotoxicity,[2],did not protect
same,"Cell Death (%) vs STSR at 75 nM, significance",[2],statistically significant cytotoxicity
"C=C(C)[C@@H]1CCC(C)=C[C@H]1c1c(O)cc(CCCCC)c(C(=O)O)c1O [CBDA, cannabidiolic acid]",toxicity in primary screen,[1]; 5 μM to 15 μM,high levels of toxicity
same,Cell Death (%) vs Vehicle Control,[1],promote cell death
same,toxicity in primary screen,[1]; about 0.5 μM to 1.5 μM,high levels of toxicity
"CCCCCc1cc(O)c(C/C=C(\C)CCC=C(C)C)c(O)c1 [CBG, cannabigerol]",toxicity in primary screen,[1]; 5 μM to 15 μM,high levels of toxicity
same,Cell Death (%) vs Vehicle Control,[1],promote cell death
same,protection from STSR induced cytotoxicity,"[2]; 5 μM, 10 μM and 15 μM with STSR 75 nM, FIG. 6",did not protect
same,"Cell Death (%) vs STSR, significance","[2]; 15 μM with STSR 75 nM, p=0.0002, FIG. 6",statistically significant cytotoxicity
same,protection from Aβ1-42 induced insult,"[3]; 1.5 μM, 5 μM and 10 μM with Aβ1-42 5 μM, FIG. 7",did not protect
same,cytotoxicity with Aβ1-42,"[3]; 10 μM with Aβ1-42 5 μM, p<0.0001, FIG. 7",significant cytotoxicity
"CCCCCc1cc(O)c2c(c1)OC(C)(C)c1ccc(C)cc1-2 [CBN, cannabinol]",toxicity in primary screen,[1]; 5 μM to 15 μM,high levels of toxicity
same,Cell Death (%) vs Vehicle Control,[1],promote cell death
same,neuroprotection against STSR-induced cytotoxicity,[2],did not protect
same,"Cell Death (%) vs STSR at 75 nM, significance",[2],statistically significant cytotoxicity
same,CB1R expression and translocation,[4],did not alter the expression of CB1R
same,neurite length,[5],significantly decreased the neurite length
same,"neuronal morphology and neurite outgrowth, TuJ1 staining",[6],loss of neurite outgrowth and elongation
C=C(C)c1ccc(C)cc1-c1c(O)cc(CCCCC)cc1O [CBND],toxicity in primary screen,[1]; 5 μM to 15 μM,high levels of toxicity
same,Cell Death (%) vs Vehicle Control,[1],promote cell death
same,neuroprotection against STSR-induced cytotoxicity,[2],did not protect
same,"Cell Death (%) vs STSR at 75 nM, significance",[2],statistically significant cytotoxicity
"Cc1ccc(Cn2nc(C(=O)N[C@@H]3C(C)(C)[C@@H]4CC[C@@]3(C)C4)cc2-c2ccc(Cl)c(C)c2)cc1 [SRI 14528, 5-(4-chloro-3-methylphenyl)-1-[(4-methylphenyl)methyl]-N-[(1S,2S,4R)-1,3,3-trimethylbicyclo[2.2.1]heptan-2-yl]-1H-pyrazole-3-carboxamide]",reversal of CBGA mediated neuroprotection,[7],completely reversed
"CN[C@@H]1C[C@H]2O[C@@](C)([C@@H]1OC)n1c3ccccc3c3c4c(c5c6ccccc6n2c5c31)C(=O)NC4 [STSR, Staurosporin]",cell death,"[1]; STSR 75 nM, 72 hrs, vs vehicle control, FIG. 2",~34%
same,cell death,"[1]; STSR 200 nM, 72 hrs, vs vehicle control, FIG. 2",~66%
same,cell death,"[1]; STSR-insult alone at 75 nM, FIG. 5",~48%
"CCCCCc1cc(O)c2c(c1)OC(C)(C)[C@@H]1CCC(C)=C[C@@H]21 [Δ9-THC, Δ^9-tetrahydrocannabinol]",toxicity in primary screen,[1]; 5 μM to 15 μM,high levels of toxicity
same,Cell Death (%) vs Vehicle Control,[1],promote cell death
same,toxicity in primary screen,[1]; about 0.5 μM to 1.5 μM,high levels of toxicity
same,CB1R expression and translocation,[4],did not alter the expression of CB1R
same,neurite length,[5],significantly decreased the neurite length
same,"neuronal morphology and neurite outgrowth, TuJ1 staining",[6],disrupted neuronal morphology and neurite outgrowth
"Aβ1-42: Amyloid-beta (Aβ1-42) peptide, insult-inducing cytotoxic agent",neurite morphology,[8],damaged neurite outgrowth
same,cytotoxicity,"[1]; Aβ1-42 insult alone at 5 μM, 24 hrs, FIG. 7",23-52%
same,BAX expression,[9],induced upregulation
same,BCL2 expression,[10],downregulation
